Bridge positions count the residues as written; N and C are the ends. Square brackets hold non-standard residues; d marks the D form. Peptide text beside a SMILES is read from it. R8 = C=CCCCCCC[C@@](C)(N)C(=O)O; S5 = C=CCCC[C@](C)(N)C(=O)O
How the values were obtained:
[1] = biological target: 5HB, a recombinant protein containing 3 HR1 domains covalently attached to 2 HR2 domains; settings: competition with fluorescently labeled T108 probe (2 nM), 5HB 50 nM, 10 min preincubation + 30 min room temperature, duplicates
[2] = system: recombinant GFP-expressing RSV (strain A2) in A549 cells; format: cell-based, human respiratory syncytial virus; settings: A549 cells, eGFP RSV, GFP-positive cells by FACS 24 h p.i.
Procedure: A549 cells were infected with a recombinant green fluorescent protein (GFP)-expressing RSV (strain A2) ([23]), and the inhibitory activity of the peptide was quantified by flow cytometry.
Each peptide was diluted 3 times by 2-fold serial dilutions. eGFP RSV virus at an MOI of 0.5 was used for the infection, and GFP-positive cells were counted by FACS analysis 24 h p.i. The GFP data were normalized to the fluorescence values observed with virus only and plotted as percent inhibition.
Serial 4-fold dilutions of inhibitors were mixed with eGFP-encoding RSV virus ([23]) with a volume of virus required to achieve approximately 50% of infection in medium containing 2% fetal calf serum. The resulting mixture was added to 24-well plates containing A549 cells. Cells were incubated for 2 h at 37°C, the medium was replaced, and cells were incubated for an additional 24 h. Cells were treated with 300 μl of trypsin for 10 min at 37°C, and the detached cells were diluted in 1 ml of culture medium. Following centrifugation at 1,700 rpm, the pellet was resuspended in 300 μl of PBS–1% fetal bovine serum (FBS) (vol/vol) and GFP-positive cells were counted by fluorescence-activated cell sorter (FACS) analysis. The GFP data were normalized to the fluorescence value observed with virus only. The resulting inhibition curves were fitted in Igor Pro as described above.

circular dichroism = settings: 10 mM phosphate; pH 7.5; 25 °C; 50 uM
[3] = Far-UV circular dichroism, α-helical content; format: physicochemical; settings: CD, indicator of α-helical stability
Procedure: The circular dichroism spectra were acquired on a Chirascan spectropolarimeter. The samples were prepared in 10 mM phosphate buffer, pH 7.5, at a peptide concentration of 50 μM. Data were recorded at 25°C by step scan from 180 nm to 260 nm in a 0.5-mm path length quartz cell using 1-nm wavelength increments and a response time of 1 s. The data were converted to per residue molar ellipticity units [θ] (degree per square centimeter per decimole per residue) and smoothed using the Igor Pro software. The percentage of helicity was calculated as described previously ([35]).

| Compound | Kd [1] | inhibition of RSV-eGFP infection (in words) [2] | helicity (circular dichroism) | θ208/θ222 molar ellipticity ratio [3] |
| --- | --- | --- | --- | --- |
| CC[C@H](C)[C@H](NC(=O)[C@H](CCCCN)NC(=O)[C@]1(C)CCCC=CCCCCCC[C@@](C)(NC(=O)[C@H](CC(=O)O)NC(=O)[C@H](Cc2ccccc2)NC(=O)[C@H](CCC(=O)O)NC(=O)[C@H](CC(=O)O)NC(=O)[C@H](CO)NC(=O)[C@@H]2CCCN2C(=O)[C@H](Cc2ccccc2)NC(=O)[C@H](CCC(=O)O)NC(C)=O)C(=O)N[C@@H](CO)C(=O)N[C@@H]([C@@H](C)CC)C(=O)N[C@@H](CO)C(=O)N[C@@H](CCC(N)=O)C(=O)N[C@@H](C(C)C)C(=O)N[C@@H](CC(N)=O)C(=O)N1)C(=O)N[C@@H](CC(N)=O)C(N)=O [Peptide 1b] (Ac-EFPSDEFD[R8]SISQVN[S5]KIN-NH2; staple 9-16) | 47 ± 6 µM | none | 19.8% | – |
| CC[C@H](C)[C@H](NC(=O)[C@H](CCCCN)NC(=O)[C@H](CCC(=O)O)NC(=O)[C@H](CC(N)=O)NC(=O)[C@@H](NC(=O)[C@H](CCC(N)=O)NC(=O)[C@H](CO)NC(=O)[C@@H](NC(=O)[C@H](CO)NC(=O)[C@H](C)NC(=O)[C@]1(C)CCCC=CCCC[C@](C)(NC(=O)[C@@H]2CCCN2C(=O)[C@H](Cc2ccccc2)NC(=O)[C@H](CCC(=O)O)NC(C)=O)C(=O)N[C@@H](CC(=O)O)C(=O)N[C@@H](CCC(=O)O)C(=O)N[C@@H](Cc2ccccc2)C(=O)N1)[C@@H](C)CC)C(C)C)C(=O)N[C@@H](CC(N)=O)C(N)=O [Peptide 1d] (Ac-EFP[S5]DEF[S5]ASISQVNEKIN-NH2; staple 4-8) | 8 ± 4 µM | none | 34.3% | – |
| CC[C@H](C)[C@H](NC(=O)[C@H](CCCCN)NC(=O)[C@]1(C)CCCC=CCCC[C@](C)(NC(=O)[C@@H](NC(=O)[C@H](CO)NC(=O)[C@]2(C)CCCC=CCCC[C@](C)(NC(=O)[C@H](CO)NC(=O)[C@@H]3CCCN3C(=O)[C@H](Cc3ccccc3)NC(=O)[C@H](CCC(=O)O)NC(C)=O)C(=O)N[C@@H](CCC(=O)O)C(=O)N[C@@H](Cc3ccccc3)C(=O)N[C@@H](CC(=O)O)C(=O)N2)[C@@H](C)CC)C(=O)N[C@@H](CCC(N)=O)C(=O)N[C@@H](C(C)C)C(=O)N[C@@H](CC(N)=O)C(=O)N1)C(=O)N[C@@H](CC(N)=O)C(N)=O [Peptide 1eg] (Ac-EFPS[S5]EFD[S5]SI[S5]QVN[S5]KIN-NH2; staple 5-9, 12-16) | 24 ± 4 µM | – | 35.3% | ~1 |
| CC[C@H](C)[C@H](NC(=O)[C@H](CCCCN)NC(=O)[C@H](CCC(=O)O)NC(=O)[C@H](CC(N)=O)NC(=O)[C@@H](NC(=O)[C@]1(C)CCCC=CCCC[C@](C)(NC(=O)[C@H](CC(=O)O)NC(=O)[C@H](Cc2ccccc2)NC(=O)[C@H](CCC(=O)O)NC(=O)[C@H](CC(=O)O)NC(=O)[C@H](CO)NC(=O)[C@@H]2CCCN2C(=O)[C@H](Cc2ccccc2)NC(=O)[C@H](CCC(=O)O)NC(C)=O)C(=O)N[C@@H](CO)C(=O)N[C@@H]([C@@H](C)CC)C(=O)N[C@@H](CO)C(=O)N1)C(C)C)C(=O)N[C@@H](CC(N)=O)C(N)=O [Peptide 1f] (Ac-EFPSDEFD[S5]SIS[S5]VNEKIN-NH2; staple 9-13) | 7.4 ± 1.3 µM | none | 35.2% | – |
| CC[C@H](C)[C@@H]1NC(=O)[C@H](Cc2ccccc2)NC(=O)[C@@](C)(NC(=O)[C@H](CC(C)C)NC(=O)[C@H](CO)NC(=O)[C@H](CCC(N)=O)NC(=O)[C@H](CCC(=O)O)NC(C)=O)CCCC=CCCC[C@@](C)(C(=O)N[C@@H](CO)C(=O)N[C@@H](CC(=O)O)C(=O)N[C@@H](CCC(=O)O)C(=O)N[C@@H](CC(C)C)C(=O)N[C@@H](CC(C)C)C(=O)N[C@@H](Cc2c[nH]cn2)C(=O)N[C@@H](CC(N)=O)C(=O)N[C@H](C(N)=O)C(C)C)NC(=O)[C@H](CCCNC(=N)N)NC1=O [Peptide 3a] (Ac-EQSL[S5]FIR[S5]SDELLHNV-NH2; staple 5-9) | 5.8 ± 1.8 µM | none | 33.9% | – |
| CC[C@H](C)[C@@H]1NC(=O)[C@H](Cc2ccccc2)NC(=O)[C@H](C)NC(=O)[C@H](CC(C)C)NC(=O)[C@H](CO)NC(=O)[C@](C)(NC(=O)[C@H](CCC(=O)O)NC(C)=O)CCCCCCC=CCCC[C@@](C)(C(=O)N[C@@H](CO)C(=O)N[C@@H](CC(=O)O)C(=O)N[C@@H](CCC(=O)O)C(=O)N[C@@H](CC(C)C)C(=O)N[C@@H](CC(C)C)C(=O)N[C@@H](Cc2c[nH]cn2)C(=O)N[C@@H](CC(N)=O)C(=O)N[C@H](C(N)=O)C(C)C)NC(=O)[C@H](CCCNC(=N)N)NC1=O [Peptide 3d] (Ac-E[R8]SLAFIR[S5]SDELLHNV-NH2; staple 2-9) | 3.2 ± 2.7 µM | none | 24.4% | – |
| CC[C@H](C)[C@H](NC(=O)[C@H](Cc1ccccc1)NC(=O)[C@H](C)NC(=O)[C@H](CC(C)C)NC(=O)[C@H](CO)NC(=O)[C@H](CCC(N)=O)NC(=O)[C@H](CCC(=O)O)NC(C)=O)C(=O)N[C@@H](CCCNC(=N)N)C(=O)N[C@]1(C)CCCCCCC=CCCC[C@@](C)(C(=O)N[C@H](C(N)=O)C(C)C)NC(=O)[C@H](Cc2c[nH]cn2)NC(=O)[C@H](CC(C)C)NC(=O)[C@H](CC(C)C)NC(=O)[C@H](CCC(=O)O)NC(=O)[C@H](CC(=O)O)NC(=O)[C@H](CO)NC1=O [Peptide 3f] (Ac-EQSLAFIR[R8]SDELLH[S5]V-NH2; staple 9-16) | 4.1 ± 1.9 µM | none | 26.4% | – |

— publication PMC5365662, “A Short Double-Stapled Peptide Inhibits Respiratory Syncytial Virus Entry and Spreading” (Antimicrobial Agents and Chemotherapy, 2017)
